Legend:
FPR2 [1] = target: T1, FPR2 (Homo sapiens, UniProt P25090); assay: PathHunter β-arrestin recruitment in CHO-K1 FPR2 cells; type: cell-based
T1 sequence (P25090 1-351): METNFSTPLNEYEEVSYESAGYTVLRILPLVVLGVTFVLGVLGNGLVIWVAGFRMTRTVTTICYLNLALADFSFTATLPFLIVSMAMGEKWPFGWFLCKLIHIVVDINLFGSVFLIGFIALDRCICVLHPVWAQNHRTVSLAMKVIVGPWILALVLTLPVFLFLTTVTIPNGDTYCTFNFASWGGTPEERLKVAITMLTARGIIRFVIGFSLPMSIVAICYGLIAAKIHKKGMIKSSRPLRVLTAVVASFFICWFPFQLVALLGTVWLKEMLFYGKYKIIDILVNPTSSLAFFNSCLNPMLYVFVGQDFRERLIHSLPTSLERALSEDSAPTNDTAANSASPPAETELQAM

human neutrophils = assay: Ca2+ mobilization in human neutrophils; type: cell-based; settings: % of response induced by 5 nM fMLF
FPR1 [2] = target: T2, FPR1 (Homo sapiens, UniProt P21462); assay: Ca2+ mobilization in HL-60 cells transfected with FPR1; type: cell-based; settings: HL-60-FPR1 cells; % of response induced by 5 nM fMLF
T2 sequence (P21462 1-350): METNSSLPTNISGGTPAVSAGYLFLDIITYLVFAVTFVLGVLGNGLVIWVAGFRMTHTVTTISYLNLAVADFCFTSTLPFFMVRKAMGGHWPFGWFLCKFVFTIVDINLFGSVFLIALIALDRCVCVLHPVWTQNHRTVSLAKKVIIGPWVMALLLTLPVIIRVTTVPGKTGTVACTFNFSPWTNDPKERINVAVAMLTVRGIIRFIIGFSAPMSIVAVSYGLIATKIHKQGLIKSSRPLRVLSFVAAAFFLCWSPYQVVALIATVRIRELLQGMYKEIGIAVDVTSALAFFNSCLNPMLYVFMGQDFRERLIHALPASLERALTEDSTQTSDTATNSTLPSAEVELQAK

FPR2 [3] = target: T1, FPR2; assay: Ca2+ mobilization in HL-60 cells transfected with FPR2; type: cell-based; settings: HL-60-FPR2 cells; % of response induced by 5 nM WKYMVm
FPR1 [4] = target: T2, FPR1; assay: PathHunter β-arrestin recruitment in CHO-K1 FPR1 cells; type: cell-based; settings: % of response induced by 5 nM WKYMVm
FPR2/ALX = settings: read-out: EC50 at FPR2/ALX; endogenous ligand; cited from earlier work

Ca2+ mobilization FPR1 efficacy (FPR1 [2]) [%] | Ca2+ mobilization FPR2 efficacy (FPR2 [3]) [%] | Compound | Ca2+ mobilization hPMN efficacy (human neutrophils) [%] | other results
85 | 120 | CCC[C@H](C(=O)Nc1ccc(Br)cc1)n1nc(C)cc(Cc2cccc(OC)c2)c1=O [R-(−)-5c, R-(−)-N-(4-Bromophenyl)-2-[5-(3-methoxybenzyl)-3-methyl-6-oxopyridazin-1(6H)-yl]pentanamide] | 145 | β-Arrestin recruitment FPR1 efficacy (FPR1 [4]): 120%; β-Arrestin recruitment FPR2 efficacy (FPR2 [1]; CHO-K1 FPR2 cells, % of response induced by 5 nM WKYMVm): 100%
95 | 95 | CCC(C(=O)Nc1ccc(Br)cc1)n1nc(C)cc(Cc2cccc(OC)c2)c1=O (racemic) [(±)-5b, (±)-N-(4-Bromophenyl)-2-[5-(3-methoxybenzyl)-3-methyl-6-oxopyridazin-1(6H)-yl]butanamide] | 145 | –

The remaining lines, values behind:

Compound | Ca2+ mobilization FPR1 efficacy (FPR1 [2]) [%] | Ca2+ mobilization FPR2 efficacy (FPR2 [3]) [%] | Ca2+ mobilization hPMN efficacy (human neutrophils) [%] | other results
CSCC[C@H](NC=O)C(=O)N[C@@H](CC(C)C)C(=O)N[C@@H](Cc1ccccc1)C(=O)O [fMLF, N-formyl-methionine-leucine-phenylalanine, reference compound] | – | – | – | β-Arrestin recruitment FPR2 (in words) (FPR2 [1]; FPR2 CHO-K1 cells): no recruitment
CCCCC[C@H](O)/C=C/C=C\C=C\C=C\[C@@H](O)[C@@H](O)CCCC(=O)O [LXA4, lipoxin A4] | – | – | – | EC50 (FPR2/ALX): 1 nM
COc1cccc(Cc2cc(C)nn([C@H](C)C(=O)Nc3ccc(Br)cc3)c2=O)c1 [R-(−)-5a, R-(−)-N-(4-Bromophenyl)-2-[5-(3-methoxybenzyl)-3-methyl-6-oxopyridazin-1(6H)-yl]propanamide] | – | – | 110 | –
COc1cccc(Cc2cc(C)nn([C@@H](C)C(=O)Nc3ccc(Br)cc3)c2=O)c1 [S-(+)-5a, S-(+)-N-(4-Bromophenyl)-2-[5-(3-methoxybenzyl)-3-methyl-6-oxopyridazin-1(6H)-yl]propanamide] | – | – | 65 | –

Source: paper PMC3565387 (Bioorganic & medicinal chemistry, 2012)
